Where two headings read alike, the source gives them in different places.
Test: Pharmacokinetics in adult Sprague-Dawley rats
Assay type: in vivo
Settings: average n = 4; for Cmax / AUC / AUC(0-t): rat blood
Method: All animal studies were approved by the Montreal Heart Institute (MHI) Animal Care and Ethical committee. Pharmacokinetic experiments were performed in collaboration at the Montreal Heart Institute in collaboration with the Platform of Biopharmacy at Université de Montréal. Briefly, Compound 2 (formulation PG:H20; 50:50 stock solution 2.5 mg/ml) was administered intravenously (iv) at 5 mg/kg (n=4) or by oral gavage (PO) at 25 mg/kg (n=4) in adult Sprague-Dawley male rats (˜200 g). […] Samples were mixed and centrifuged at 15000 rpm for 5 min. 50 μL of supernatant were transferred to an HPLC plate, and 100 μL of water+0.1% formic acid were added. […] Samples were analyzed in MRM mode using LC-MS/MS. The calibration curve was plotted using the ratio of the analyte peak area and the IS peak area, using a quadratic regression. Pharmacokinetic (PK) parameters were calculated using Kinetica Software for PK/PD Data Analysis, Simulation and Reporting (Thermo Fisher), based on the blood concentrations of each animal. Results are described in Table 4 and illustrated in FIG. 20.

[1] = male, Sprague-Dawley, rat, whole blood, PO 25 mg/kg
[2] = male, Sprague-Dawley, rat, whole blood, iv 5 mg/kg
[3] = male, Sprague-Dawley, whole blood, PO 25 mg/kg
[4] = male, Sprague-Dawley, whole blood, iv 5 mg/kg

- Lz (PO 25 mg/kg): 0.24 h⁻¹
- Vss (PO 25 mg/kg): 2.43 L
- clearance (PO 25 mg/kg): 13.44 mL/min
- thalf (PO 25 mg/kg): 2.97 h
- Cmax (PO 25 mg/kg): 7.09 μMolar
- Lz (iv 5 mg/kg): 0.12 h⁻¹
- thalf (iv 5 mg/kg): 6.60 h
- Cmax (iv 5 mg/kg): 81.12 μMolar
- bioavailability (male, Sprague-Dawley, rat, whole blood, PO 25 mg/kg vs iv 5 mg/kg): 15%
- MRT [1]: 206 min
- Tmax [1]: 19.8 min
- MRT [2]: 33 min
- Tmax [2]: 4.8 min
- clearance (male, Sprague-Dawley, rat, whole blood, iv 5 mg/kg, read-out: Clearance): 2.2 mL/min
- Vd (male, Sprague-Dawley, rat, whole blood, iv 5 mg/kg, read-out: Vss): 0.08 L
- AUC [3]: 24.3 µM·h
- AUC(0-t) [3]: 24.2 µM·h
- AUC [4]: 31.9 µM·h
- AUC(0-t) [4]: 31.8 µM·h
Structure (SMILES): O=C(NO)c1ncc(COc2ccc(F)cc2)c(CO)c1O [Compound 2, 5-(4-fluoro-phenoxymethyl)-3-hydroxy-4-hydroxymethyl-pyridine-2-carboxylic acid hydroxyamide]

From patent US11400082B2, “Methods of treating elevated plasma cholesterol” (Montréal Heart Institute, priority 2017, dated 2022)
